Where two headings read alike, the source gives them in different places.
Tests used:
Type in all cases: in vivo
[1] = system: Common lambsquarters (Chenopodium album L.); experiment: Test Example 12: field plot test, growth inhibition; conditions: Example 8 suspension concentrate, 27 days after treatment, field plots; for inhibition at 40 g/ha: Compound A 40 g/ha; for inhibition at 60 g/ha: Compound A 60 g/ha
Description: (§1) In field plots of 3 m² (1 m × 3 m) unit arranged in a duplicate system, seeds of corn, crabgrass (Digitaria sanguinalis L.), green foxtail (Setaria viridis L.), common lambsquarters (Chenopodium album L.), slender amaranth (Amaranthus virdis L.) and velvetleaf (Abutilon theophrasti MEDIC.) were sown and grown. Also, barnyardgrass (Echinochloa crus-galli L.), henbit (Lamiun amplexlcaule L.), pale smartweed (Polygonum lapathifolium L.) and threeseeded copperleaf (Acalypha australis L.) were allowed to grow spontaneously. When the plants grew to certain stages (corn: 6.1 to 6.5-leaf stage, crabgrass: 2.0 to 4.5-leaf stage, green foxtail: 3.0 to 4.5-leaf stage, common lambsquarters: 4.0 to 8.0-leaf stage, slender amaranth: 1.0 to 4.0-leaf stage, velvetleaf: 2.0 to 3.5-leaf stage, barnyardgrass: 3.0 to 4.5-leaf stage, henbit: 2.0 to 5.0 cm, pale smartweed: 3.0 to 5.0-leaf stage and threeseeded copperleaf: 2.0 to 4.0-leaf stage), the oil-based suspension concentrate obtained in Example 8 was diluted with 200 liters/hectare of water containing a predetermined amount of Frigate and was applied foliarly to the plants with a small spray gun.
(§2) Twenty seven days after treatment, the growth inhibition of plants except for corn plants was evaluated with visual observation in the same manner as in Test Example 1 and are shown in Table 12.

[2] = system: Crabgrass (Digitaria sanguinalis L.); experiment: as above; conditions: 648 h, Example 8 suspension concentrate, 27 days after treatment, field plots, read-out: Growth Inhibition (%) DS; for inhibition at 40 g/ha: Compound A 40 g/ha; for inhibition at 60 g/ha: Compound A 60 g/ha
Description: as §1, §2

[3] = system: Velvetleaf (Abutilon theophrasti MEDIC.); experiment: as above; conditions: Example 8 suspension concentrate, 27 days after treatment, field plots; for inhibition at 40 g/ha: Compound A 40 g/ha
Description: as §1, §2

[4] = system: barnyardgrass (Echinochloa crus-galli L.); experiment: as above; conditions: 648 h, Example 8 suspension concentrate, 27 days after treatment, field plots, read-out: Growth Inhibition (%) EC
Description: as §1, §2

[5] = system: green foxtail (Setaria viridis L.); experiment: as above; conditions: 648 h, Example 8 suspension concentrate, 27 days after treatment, field plots, read-out: Growth Inhibition (%) SV
Description: as §1, §2

[6] = system: henbit (Lamiun amplexlcaule L.); experiment: as above; conditions: 648 h, Example 8 suspension concentrate, 27 days after treatment, field plots, read-out: Growth Inhibition (%) LA
Description: as §1, §2

[7] = system: pale smartweed (Polygonum lapathifolium L.); experiment: as above; conditions: Example 8 suspension concentrate, 27 days after treatment, field plots; for inhibition at 60 g/ha: Compound A 60 g/ha
Description: as §1, §2

[8] = system: slender amaranth (Amaranthus virdis L.); experiment: as above; conditions: 648 h, Example 8 suspension concentrate, 27 days after treatment, field plots, read-out: Growth Inhibition (%) AV; for inhibition at 40 g/ha: Compound A 40 g/ha; for inhibition at 60 g/ha: Compound A 60 g/ha
Description: as §1, §2

[9] = system: threeseeded copperleaf (Acalypha australis L.); experiment: as above; conditions: Example 8 suspension concentrate, 27 days after treatment, field plots; for inhibition at 40 g/ha: Compound A 40 g/ha
Description: as §1, §2

[10] = system: total evaluation; experiment: Test Example 12: field plot test, total evaluation of growth inhibition; conditions: 648 h, Example 8 suspension concentrate, 27 days after treatment, field plots, read-out: Growth Inhibition (%) TE; for inhibition at 40 g/ha: Compound A 40 g/ha; for inhibition at 60 g/ha: Compound A 60 g/ha
Description: as §1, §2

[11] = Chenopodium album, 648 h, Frigate 0.2 % by volume, read-out: Growth Inhibition (%) CA
[12] = Chenopodium album, 648 h, Frigate: No addition, read-out: Growth Inhibition (%) CA
[13] = Frigate 0.2 % by volume, Compound A 20 g/ha
[14] = Frigate 0.2 % by volume, Compound A 30 g/ha
[15] = Frigate 0.2 % by volume, Compound A 60 g/ha
[16] = Frigate 0.2 % by volume, Compound A 40 g/ha
[17] = Frigate: No addition, Compound A 60 g/ha

COc1cc(OC)nc(NC(=O)NS(=O)(=O)c2ncccc2C(=O)N(C)C)n1 [Compound A, N-[(4,6-dimethoxypyrimidin-2-yl)aminocarbonyl]-3-dimethylaminocarbonyl-2-pyridinesulfonamide]
50%: inhibition at 60 g/ha [1, 12]
95%: inhibition at 40 g/ha [1, 11] | inhibition at 30 g/ha [2, 14] | inhibition at 40 g/ha ([2]; Frigate 0.2 % by volume) | inhibition at 40 g/ha ([2]; Frigate: No addition) | inhibition at 60 g/ha ([3]; Abutilon theophrasti, 648 h, Frigate 0.2 % by volume, Compound A 60 g/ha) | inhibition at 40 g/ha ([7]; Persicaria lapathifolia, 648 h, Frigate 0.2 % by volume, Compound A 40 g/ha, read-out: Growth Inhibition (%) PL) | inhibition at 40 g/ha ([9]; Acalypha australis, 648 h, Frigate 0.2 % by volume, read-out: Growth Inhibition (%) AA) | inhibition at 20 g/ha [10, 13] | inhibition at 30 g/ha [10, 14] | inhibition at 40 g/ha ([10]; Frigate 0.2 % by volume)
65%: inhibition at 60 g/ha ([3]; Abutilon theophrasti, 648 h, Frigate: No addition, Compound A 60 g/ha)
80%: inhibition at 20 g/ha ([1]; Chenopodium album, 648 h, Frigate 0.2 % by volume, Compound A 20 g/ha, read-out: Growth Inhibition (%) CA) | inhibition at 30 g/ha ([1]; Chenopodium album, 648 h, Frigate 0.2 % by volume, Compound A 30 g/ha, read-out: Growth Inhibition (%) CA) | inhibition at 30 g/ha ([3]; Abutilon theophrasti, 648 h, Frigate 0.2 % by volume, Compound A 30 g/ha) | inhibition at 40 g/ha ([3]; Abutilon theophrasti, 648 h, Frigate 0.2 % by volume) | Growth Inhibition (%) PL [7, 13]
98%: inhibition at 60 g/ha ([2]; Frigate: No addition) | inhibition at 20 g/ha [6, 13] | inhibition at 30 g/ha [6, 14] | inhibition at 40 g/ha [6, 16] | inhibition at 60 g/ha [6, 17] | inhibition at 60 g/ha ([7]; Persicaria lapathifolia, 648 h, Frigate 0.2 % by volume, read-out: Growth Inhibition (%) PL) | Growth Inhibition (%) AA [9, 15]
40%: inhibition at 40 g/ha [1, 12]
75%: Growth Inhibition (%) CA [1, 13] | inhibition at 20 g/ha ([3]; Abutilon theophrasti, 648 h, Frigate 0.2 % by volume, Compound A 20 g/ha)
99%: inhibition at 60 g/ha [1, 11] | inhibition at 60 g/ha ([2]; Frigate 0.2 % by volume) | inhibition at 30 g/ha [8, 14] | inhibition at 40 g/ha ([8]; Frigate 0.2 % by volume) | inhibition at 60 g/ha ([8]; Frigate 0.2 % by volume) | inhibition at 40 g/ha ([8]; Frigate: No addition) | inhibition at 60 g/ha ([8]; Frigate: No addition) | inhibition at 60 g/ha ([10]; Frigate 0.2 % by volume)
100%: Growth Inhibition (%) AT [3, 15] | inhibition at 20 g/ha [4, 13] | inhibition at 30 g/ha [4, 14] | inhibition at 40 g/ha [4, 16] | inhibition at 60 g/ha [4, 17] | inhibition at 20 g/ha [5, 13] | inhibition at 30 g/ha [5, 14] | inhibition at 40 g/ha [5, 16] | inhibition at 60 g/ha [5, 17] | inhibition at 20 g/ha ([7]; Persicaria lapathifolia, 648 h, Frigate 0.2 % by volume, Compound A 20 g/ha, read-out: Growth Inhibition (%) PL) | inhibition at 30 g/ha ([7]; Persicaria lapathifolia, 648 h, Frigate 0.2 % by volume, Compound A 30 g/ha, read-out: Growth Inhibition (%) PL) | inhibition at 60 g/ha ([7]; Persicaria lapathifolia, 648 h, Frigate: No addition, read-out: Growth Inhibition (%) PL) | inhibition at 20 g/ha [8, 13]
90%: inhibition at 20 g/ha [2, 13] | inhibition at 40 g/ha ([7]; Persicaria lapathifolia, 648 h, Frigate: No addition, Compound A 40 g/ha, read-out: Growth Inhibition (%) PL) | inhibition at 20 g/ha ([9]; Acalypha australis, 648 h, Frigate 0.2 % by volume, Compound A 20 g/ha, read-out: Growth Inhibition (%) AA) | inhibition at 30 g/ha ([9]; Acalypha australis, 648 h, Frigate 0.2 % by volume, Compound A 30 g/ha, read-out: Growth Inhibition (%) AA) | inhibition at 60 g/ha ([9]; Acalypha australis, 648 h, Frigate 0.2 % by volume, Compound A 60 g/ha, read-out: Growth Inhibition (%) AA) | inhibition at 40 g/ha ([9]; Acalypha australis, 648 h, Frigate: No addition, read-out: Growth Inhibition (%) AA) | inhibition at 60 g/ha ([9]; Acalypha australis, 648 h, Frigate: No addition, Compound A 60 g/ha, read-out: Growth Inhibition (%) AA)
70%: inhibition at 40 g/ha ([3]; Abutilon theophrasti, 648 h, Frigate: No addition) | Growth Inhibition (%) PL ([7]; Frigate: No addition, Compound A 40 g/ha) | inhibition at 40 g/ha ([10]; Frigate: No addition) | inhibition at 60 g/ha ([10]; Frigate: No addition)

From EP0598515A1, “Method for herbicidal activity-enhancing, activity-enhanced herbicidal composition and activity-enhancing composition” (ISHIHARA SANGYO KAISHA LTD., priority 1992, dated 1994)
